ChEMBL document CHEMBL1139242, “Peptide deformylase inhibitors of Mycobacterium tuberculosis: synthesis, structural investigations, and biological results” (Bioorg Med Chem Lett, 2008)
Converted amounts (≈) assume the structure as drawn.

How the values were obtained:
Type in all cases: functional
Details in all cases: 336 h
[1] = system: Mycobacterium tuberculosis; assay: Antitubercular activity against Beijing W multidrug resistant Mycobacterium tuberculosis after 14 days by turbidimetric assay
[2] = system: Mycobacterium tuberculosis; assay: Antitubercular activity against streptomycin-resistant Mycobacterium tuberculosis after 14 days by turbidimetric assay
[3] = system: Mycobacterium tuberculosis; assay: Antitubercular activity against pyrazinamide-resistant Mycobacterium tuberculosis after 14 days by turbidimetric assay
[4] = system: Mycobacterium tuberculosis; assay: Antitubercular activity against isoniazid-resistant Mycobacterium tuberculosis after 14 days by turbidimetric assay
[5] = system: Mycobacterium tuberculosis; assay: Antitubercular activity against rifampicin-resistant Mycobacterium tuberculosis after 14 days by turbidimetric assay

SMILES	MIC [1] [µg/mL]	MIC [2] [µg/mL]	MIC [3] [µg/mL]	MIC [4] [µg/mL]	MIC [5] [µg/mL]
CCCC[C@H](CN(O)C=O)C(=O)N1CCC[C@H]1C(=O)Nc1ccccn1	0.125 (≈ 0.345 µM)	0.5 (≈ 1.38 µM)	0.5 (≈ 1.38 µM)	0.1 (≈ 0.276 µM)	0.25 (≈ 0.69 µM)
CCCC[C@H](CN(O)C=O)C(=O)N1CCC[C@H]1c1nc2ccccc2[nH]1	0.03 (≈ 0.0837 µM)	0.2 (≈ 0.558 µM)	0.25 (≈ 0.697 µM)	0.03 (≈ 0.0837 µM)	0.125 (≈ 0.349 µM)
CCCC[C@H](CN(O)C=O)C(=O)N1CCC[C@H]1c1nc2ccccc2o1	0.06 (≈ 0.167 µM)	0.5 (≈ 1.39 µM)	0.25 (≈ 0.696 µM)	0.06 (≈ 0.167 µM)	0.6 (≈ 1.67 µM)
